# Results as given in patent US20110195924A1, “Methods of Inhibiting the Interaction Between S100P and the Receptor for Advanced Glycation End-Products” (priority 2008, published 2011).
# Tests used:
# S100P = target: T1, S100P (Homo sapiens, UniProt P25815); assay: S100P binding to cromolyn using affinity chromatography; details: cromolyn coupled to AF-TOYOPEARL; control column did not retain
# T1 construct: full-length human S100P cDNA (NM_005980) was cloned into the pTrcHis2 vector; made in house; host or cells: bacteria (pTrcHis2 vector, IPTG induction)
# T1 sequence (P25815 1-95): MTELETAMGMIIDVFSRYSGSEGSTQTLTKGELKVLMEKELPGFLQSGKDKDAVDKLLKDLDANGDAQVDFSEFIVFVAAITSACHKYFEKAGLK
# Description: Cromolyn was coupled with the amino group of AF-amino TOYOPEARL to generate a cromolyn affinity column. A negative control column was prepared by blocking the amino group. Purified S100P was added to both columns, which were then washed extensively. Protein was eluted from the columns using EGTA and subjected to sodium dodecylsulfate polyacrylamide gel electrophoresis and staining with Commassie blue. Lane 1 of the gel is the molecular weight marker; lane 2 is the eluate from the control column; and lane 3 is the eluate from the cromolyn column (arrow, S100P). The gel shown is one of three independent experiments.
# Cromolyn was coupled to AF-TOYOPEARL resin as described in Shishibori, et al., Three distinct anti-allergic drugs, amlexanox, cromolyn and tranilast, bind to S100A12 and S100A13 of the S100 protein family; Biochem. J. 1999 Mar. 15;338 (Pt 3):583-9. Briefly, 0.1 grams of cromolyn was dissolved in 1 mL of N,N-dimethylformamide and added to 7 mL (5 grams wet mass) AF-TOYOPEARL. Next, 0.5 grams of N-ethyl-N-(3-dimethylaminopropyl)carbodiimide hydrochloride, suspended in 10 mL of N,N-dimethylformamide, was added to the cromolyn+AF-TOYOPEARL slurry. The pH was adjusted to 5.0, and the slurry was incubated with gentle shaking for 48 hours at 25° C. As a negative control, a column was prepared by blocking the amino group of AF-TOYOPEARL with sodium acetate and acetic anhydride. […]
# NFκB promoter activity = assay: NFκB luciferase reporter assay in BxPC-3 cells; format: cell-based; details: 5 hours; for basal NFκB activity, mean: 0 μM mean 1.4×10^6
# BxPC-3 cells = assay: BxPC-3 cell proliferation (MTS); format: cell-based; details: 48 hours; for basal cell proliferation, mean: 0 μM mean 1.2
# Description: BxPC-3 cells were plated at 1.0×10^3 cells/well and treated with 0 μM, 1 μM, 10 μM, and 100 μM of cromolyn, and cell proliferation was analyzed after 48 hours. Means and 95% confidence intervals of three independent experiments performed in triplicate are shown. *, P=0.002; t, P<0.001 versus control. Growth of Panc-1 and BxPC3 pancreatic adenocarcinoma cells was analyzed using MTS reagent (Promega, Madison, Wis.) according to the manufacturer's directions. Purified S100P (100 nM final concentration) with or without cromolyn (100 μM final concentration) was added to Panc-1 cells. Only cromolyn (0-100 μM) was added to BxPC-3 cells, which express endogenous S100P. For both cell models, 1.0×10^3 cells/well were plated in 96-well culture dishes. Cells were treated with S100P, PDGF, or cromolyn, or a combination, followed immediately by treatment with either S100P or PDGF. MTS (20 μL per well) was added to cells at various times, and the mixture was incubated for 1 hour at 37° C. Samples were then read at 490 nm (as O.D. units) on a uQuant-Microplate Spectrophotometer (Bio-Tek Services Inc., Richmond, Va.). The assay was performed three times in triplicate.
compound,measurement,setting,value
"O=C(O)c1cc(=O)c2c(OCC(O)COc3cccc4oc(C(=O)O)cc(=O)c34)cccc2o1 [cromolyn, disodium 1,3-bis[(2′-carboxylatochromon-5′-yl)oxy]-2-hydroxypropane]",retention of S100P on cromolyn affinity column,S100P,retained S100P
same,"basal NFκB activity, difference versus 0 μM",NFκB promoter activity; cromolyn 10 μM,4.7×10^5 photons/sec
same,"basal NFκB activity, mean",NFκB promoter activity; cromolyn 10 μM,9.4×10^5 photons/sec
same,"basal NFκB activity, difference versus 0 μM",NFκB promoter activity; cromolyn 100 μM,5.9×10^5 photons/sec
same,"basal NFκB activity, mean",NFκB promoter activity; cromolyn 100 μM,8.2×10^5 photons/sec
same,"basal cell proliferation, difference versus 0 μM",BxPC-3 cells; cromolyn 10 μM,0.5 MTS units
same,"basal cell proliferation, mean",BxPC-3 cells; cromolyn 10 μM,0.7 MTS units
same,"basal cell proliferation, difference versus 0 μM",BxPC-3 cells; cromolyn 100 μM,0.6 MTS units
same,"basal cell proliferation, mean",BxPC-3 cells; cromolyn 100 μM,0.6 MTS units
